Earlier results, collected in patent US20130115640A1, “ACTH for Treatment of Kidney Disease” (priority 2011, published 2013).

Tested on: TGF-β
Conditions: Losartan 50 mg, 4 weeks, type II diabetes and microalbuminuria

CCCCc1nc(Cl)c(CO)n1Cc1ccc(-c2ccccc2-c2nn[nH]n2)cc1 [Losartan]
plasma TGF-β levels: not altered | urinary TGF-β levels: significantly reduced
